This is an account of results in EP1902732A1, “PROPHYLACTIC/THERAPEUTIC AGENT FOR HER2-EXPRESSING CANCER” (Takeda Pharmaceutical Company Limited, priority 2005, dated 2006).

Experiment [1] concerns phosphorylated S6 kinase (S6K). Nature of the experiment: Western blotting of phosphorylated S6K in BT-474 cells. Conditions: Example 7, two hours, antimycin 1-0.01 nmol/L, oligomycin 100-1 ng/mL, 2,4-dinitrophenol 300-3 µmol/L. It counts as cell-based, human. As to the method:
(§1) Human HER2-expressing human breast cancer cell line BT-474 (purchased from American Tissue Culture Collection (ATCC)) was seeded into a 24-multiwell plate (BT-474: 1.2 x 10^5 cells/well) and cultured overnight in a carbon dioxide gas incubator (5% CO2, 37°C). As an energy metabolism inhibitor having a mechanism that differed from that of rotenone, mitochondrial respiratory chain complex III-inhibiting compound antimycin (Wako Pure Chemical Industries) was added to final concentrations of 1, 0.3, 0.1, 0.03 and 0.01 nmol/L while continuing culture. Using another plate, mitochondrial respiratory chain complex V-inhibiting compound oligomycin (Wako Pure Chemical Industries) was added to final concentrations of 100, 30, 10, 3 and 1 ng/mL while continuing culture. In addition, 2,4-dinitrophenol was added to 300, 100, 30, 10 and 3 µmol/L while continuing culture. Two hours after the addition of the agent, the broth was removed and the cells were lysed with an SDS sample buffer (200 µL). Then, this cell lysate was used to perform western blotting analysis. Specifically, this cell lysate (8 µL) was separated by an SDS-PAGE method (gel concentration: 7.5-15%) (Analytical Biochemistry, No. 166, pp. 368-379, 1987) and transferred onto a nitrocellulose membrane (BioRad). Then, an antibody specific to phosphorylated HER2 (Cell signaling technology, Code# 2244), pACC antibody specific to phosphorylated acetyl-CoA carboxylase (ACC) (Cell signaling technology, Code# 3661) and anti-phosphorylated S6K antibody specific to phosphorylated S6 kinase (S6K) (Cell signaling technology, Code# 9209) were used to detect the antibody by chemiluminescent detection with an ECL system (Amersham) to quantify an amount of phosphorylated protein with LAS-1000 plus image analysis device (FUJIFILM).
(In general: A western blot detects proteins with antibodies after separation by electrophoresis.)

The test system of experiment [2] is MDA-MB-231 breast cancer cell. Briefly: Viable cell count using Cell Counting Kit-F. It counts as cell-based. Particulars: MB231; HER2-nonexpressing cancer; five days of culture. As for the experimental part:
(§2) BT-474 breast cancer cell, MDA-MB-453 breast cancer cell, A549 non-small cell lung cancer cell and LNCaP prostate cancer cell were used as human HER2-expressing cells while MDA-MB-231 breast cancer cell and A498 kidney cancer cell (all purchased from ATCC) were used as HER2-nonexpressing cells. Each of the cells used had been seeded into a 96-plate at 500cells/150 µL/well and cultured overnight. Each of the compounds, i.e., antimycin (final concentrations: 1, 0.1, 0.01 and 0.001 µmol/L), 2,4-dinitrophenol (final concentrations: 0.6, 0.2, 0.06 and 0.02 mmol/L), metformin (final concentrations: 25, 5, 1 and 0.2 mmol/L) and AICAR (final concentrations: 25, 5, 1 and 0.2 mmol/L) was diluted with a medium and added for 50 µL/well at a time to the final concentrations mentioned above. Following five days of culture at 37°C in 5% CO2, the cells were counted using Cell Counting Kit-F (Dojindo Laboratories).
(§3) Viable cell count using Cell Counting Kit-F was carried out by the following method according to the attached instruction. The supernatant was removed from the 96-well plate after five days of culture. Cell Counting Kit-F diluted 1000-fold with an RPMI medium (phenol red-free, serum-free) was added for 100 µL/well at a time. After 30 minutes of reaction at room temperature, fluorescence (excitation wavelength; 480 nm, fluorescent wavelength; 530 nm) was determined with a fluorescent plate reader.
(§4) From the determination results, percentage of the fluorescence level in the wells added with the compound was determined assuming that the fluorescence level in the wells without the addition of the compound (control) is 100%, and the remaining cellular quantity was determined in % with respect to that of the control.
(§5) BT-474 breast cancer cell, MDA-MB-453 breast cancer cell and LNCaP prostate cancer cell were used as human HER2-expressing cells while MDA-MB-231 breast cancer cell and A498 kidney cancer cell (all purchased from ATCC) were used as HER2-nonexpressing cells. Each of the cells used had been seeded into a 96-well plate at 500 cells/150 µL/well and cultured overnight. Troglitazone (final concentrations: 25, 6.25 and 1.56 µmol/L) was diluted with a medium, and added for 50 µL/well at a time to the final concentrations mentioned above. Following five days of culture at 37°C in 5% CO2, the cells were counted using Cell Counting Kit-F (Dojindo Laboratories).
(§6) From the determination results, percentage of the fluorescence level in the wells added with troglitazone was determined assuming that the fluorescence level in the wells without the addition of troglitazone (control) is 100%, and the remaining cellular quantity was determined in % with respect to that of the control.
(In general: Formazan colour is commonly taken as a measure of viable cells.)

A further experiment relates to A498 kidney cancer cell. Nature of the experiment: Viable cell count using Cell Counting Kit-F. It counts as cell-based. Conditions: A498; HER2-nonexpressing cancer; five days of culture. As for the experimental part: as §2, §3, §4, §5, §6
For experiment [3], the system named is phosphorylated acetyl-CoA carboxylase (ACC). Briefly: Western blotting of phosphorylated ACC in BT-474 cells. It counts as cell-based, human. Particulars: Example 7, two hours, antimycin 1-0.01 nmol/L, oligomycin 100-1 ng/mL, 2,4-dinitrophenol 300-3 µmol/L. As to the method:
as §1

In the next experiment the test system is DU145. Nature of the experiment: Viable cell count using Cell Counting Kit-F. It counts as cell-based. Particulars: HER2-nonexpressing cancer, five days of culture.

As to `O=[N+]([O-])c1ccc(O)c([N+](=O)[O-])c1` [2,4-dinitrophenol], the “phosphorylation of S6K” value in experiment [1] is on record as “suppressed”. The “minimum concentrations for inhibiting cell proliferation for 50% or more” value came out at 0.2 mmol/L in experiment [2], 0.2 mmol/L with A498 kidney cancer cell and 0.067 mmol/L in the experiment with DU145. Also, the “phosphorylation of ACC” value in experiment [3] is “increased dose-dependently”.

Turning to antimycin, the “phosphorylation of S6K” value in experiment [1] was “suppressed”. In addition, the “minimum concentrations for inhibiting cell proliferation for 50% or more” value in experiment [2] is 1e-05 mmol/L; in the experiment on A498 kidney cancer cell, >0.0001 mmol/L; with DU145, >0.0001 mmol/L. For the same compound, in experiment [3], the “phosphorylation of ACC” value is given as “increased dose-dependently”.
